Test systems include HCT-15; T47D; SR; MDA-MB-231; SK-MEL-28; OVCAR-8; DU-145; NCI/ADR-RES; SK-MEL-2; K562; RPMI-8226; PC-3; SF-539; 786-0; KM-20L2; DMS-114; HCC 2998; DMS-273; HOP-18; XF498.
What all share (test): NCI anticancer screen, dose series, 48 h

Structures can show the parent of a compound that is named as a salt.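 Tested at 5 concentrations; 48 h exposure; 96-well plates; endpoints linearly interpolated, else capped at highest concentration. GI50 marks 50% less growth.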 Calls of active or inactive are those of the source. Cut-off read from the data, not from the text of the source: active = GI50 up to about 1.1 µM and inactive = higher.

Take `CNCCC=C1c2ccccc2CCc2ccccc21` [NORTRIPTYLINE HYDROCHLORIDE]: the GI50 with HCT-15 is 17.1 µM; with T47D, 9.23 µM (inactive); with SR, 12.1 µM (inactive); in the assay with MDA-MB-231, > 37 µM (inactive); in the assay on SK-MEL-28, 13.5 µM (inactive); in the assay on OVCAR-8, 17 µM (inactive). For the same compound, the GI50 in the assay on DU-145 was 14.5 µM (inactive); in the assay on NCI/ADR-RES, 15.7 µM (inactive); in the assay on SK-MEL-2, 15.4 µM (inactive); in the assay with K562, 11.4 µM (inactive); with RPMI-8226, 12.6 µM (inactive); with PC-3, 14.3 µM (inactive). Moreover, the GI50 was 28.5 µM (inactive) in the assay on SF-539 and 14.6 µM (inactive) with 786-0.
For `CCCCn1cc[n+](-c2nc3ccccc3n2C)c1`, the GI50 was > 100 µM (inactive) in the assay on KM-20L2; over 100 µM in the assay on HCT-15; > 100 µM (inactive) with DMS-114; > 100 µM (inactive) with SR; > 100 µM (inactive) in the assay on OVCAR-8; > 100 µM (inactive) in the assay with HCC 2998. Besides, the GI50 in the assay with SK-MEL-2, in the assay on DMS-273, in the assay with HOP-18, in the assay with K562, with RPMI-8226 and with SF-539 was > 100 µM (inactive) each time.
Consider `C=CC1(c2ccc3ccccc3c2)OCC(CC)O1` (configuration not stated), for which the GI50 was 45.6 µM in the assay on HCT-15; 35 µM (inactive) in the assay on T47D; 19.8 µM (inactive) with SR; 0.207 µM (active) with MDA-MB-231; > 100 µM (inactive) in the assay on SK-MEL-28; > 100 µM (inactive) in the assay with OVCAR-8. The GI50 was > 100 µM (inactive) in the assay on DU-145; > 100 µM (inactive) in the assay on NCI/ADR-RES; 94.2 µM (inactive) in the assay with HCC 2998; 15.6 µM (inactive) in the assay on SK-MEL-2; 13.9 µM (inactive) with K562; 46.3 µM (inactive) in the assay on RPMI-8226. In addition, the GI50 is 28 µM (inactive) in the assay on PC-3 and 85.9 µM (inactive) in the assay on 786-0.
Regarding `COc1ccc(C(O)/C(=N\NC(N)=S)c2nc3ccc([N+](=O)[O-])cc3nc2O)cc1OC` (configuration not stated), the GI50 in the assay with KM-20L2 was > 100 µM (inactive); with DMS-114, 53.1 µM (inactive); with SK-MEL-28, > 100 µM (inactive); with OVCAR-8 it was > 100 µM (inactive); in the assay with XF498 it was > 100 µM (inactive); with HCC 2998, > 100 µM (inactive). In addition, the GI50 in the assay with SK-MEL-2 was > 100 µM (inactive); in the assay on DMS-273, > 100 µM (inactive); in the assay with HOP-18, 44.2 µM (inactive); in the assay with K562, > 100 µM (inactive); in the assay with RPMI-8226, > 100 µM (inactive); in the assay on 786-0, > 100 µM (inactive).
Turning to `O=C(N[C@H]1c2ccsc2/C(=N/O)[C@H]1O)C(F)(F)F`, the GI50 in the assay with HCT-15 was over 100 µM; in the assay on T47D, > 100 µM (inactive); in the assay on SR, > 100 µM (inactive); with MDA-MB-231, > 10 µM (inactive); with SK-MEL-28, > 100 µM (inactive); with OVCAR-8 it was > 100 µM (inactive). Moreover, the GI50 with DU-145, with NCI/ADR-RES, in the assay on HCC 2998, in the assay on SK-MEL-2, in the assay on K562 and in the assay on PC-3 was > 100 µM (inactive) in each case. Also, in the assay on SF-539, the GI50 is > 100 µM (inactive).
For the compound `C[C@]12CC[C@H]3[C@@H](CC=C4C[C@@H](O)CC[C@@]43C)[C@@H]1C/C(=C\c1ccc([N+](=O)[O-])cc1)[C@@H]2O`, the GI50 was 10.9 µM with HCT-15; 4.38 µM (inactive) in the assay with T47D; 8.41 µM (inactive) in the assay with SR; 7.93 µM (inactive) in the assay with MDA-MB-231; 19.3 µM (inactive) in the assay with SK-MEL-28; 10.9 µM (inactive) with OVCAR-8. For the same compound, the GI50 was 11 µM (inactive) in the assay on DU-145; 12.5 µM (inactive) in the assay with NCI/ADR-RES; 11.7 µM (inactive) with HCC 2998; 19.8 µM (inactive) in the assay with SK-MEL-2; 5.68 µM (inactive) with K562; 7.48 µM (inactive) in the assay with RPMI-8226. For the same compound, the values for the GI50 in the assay on PC-3, with SF-539 and in the assay with 786-0 were 14.3 µM (inactive), 17.1 µM (inactive) and 10.9 µM (inactive), respectively.
`ClCCCN1CCCCC1CCl` (configuration not stated): the GI50 in the assay with KM-20L2 is > 100 µM (inactive); in the assay on HCT-15 it was over 100 µM; in the assay on DMS-114, 83 µM (inactive); with SR it was 24.8 µM (inactive); in the assay with SK-MEL-28 it was > 100 µM (inactive); with OVCAR-8, > 100 µM (inactive). The GI50 was > 100 µM (inactive) in the assay with HCC 2998; > 100 µM (inactive) in the assay on SK-MEL-2; 62.2 µM (inactive) in the assay with DMS-273; > 100 µM (inactive) in the assay with HOP-18; > 100 µM (inactive) in the assay on K562; > 100 µM (inactive) in the assay with RPMI-8226. Besides, the values for the GI50 with SF-539 and in the assay on 786-0 were > 100 µM (inactive) and 72.1 µM (inactive), respectively.
`CCCc1c(-c2ccccc2)[nH]c2ccccc2c1=O`: the GI50 with HCT-15 is 27.4 µM; in the assay with T47D it was 25.9 µM (inactive); with SR, > 100 µM (inactive); in the assay with MDA-MB-231 it was 32.2 µM (inactive); in the assay with SK-MEL-28 it was 33.7 µM (inactive); in the assay on DU-145, > 100 µM (inactive). Besides, the GI50 in the assay with HCC 2998 was 25.2 µM (inactive); with SK-MEL-2, 27.2 µM (inactive); with K562, 20.8 µM (inactive); in the assay with RPMI-8226, 54.6 µM (inactive); in the assay with PC-3 it was > 100 µM (inactive); with SF-539, 33.8 µM (inactive).
As for `COc1ccc(/C=C2/C(=O)N(C(=O)c3ccccc3O)N=C2C)cc1`, the GI50 in the assay with KM-20L2 is 16.5 µM (inactive); in the assay on HCT-15, 0.263 µM; in the assay on DMS-114, 0.117 µM (active); with T47D, 4.32 µM (inactive); with SR, 0.232 µM (active); in the assay on MDA-MB-231, 0.126 µM (active). For the same compound, the GI50 was 9.4 µM (inactive) in the assay on SK-MEL-28; 0.238 µM (active) in the assay on OVCAR-8; 0.3 µM (active) in the assay on XF498; 0.192 µM (active) with DU-145; 0.984 µM (active) in the assay with NCI/ADR-RES; 0.327 µM (active) with SK-MEL-2. Moreover, the GI50 was 0.0492 µM (active) in the assay with K562; 0.895 µM (active) with RPMI-8226; 0.535 µM (active) in the assay on PC-3; 0.109 µM (active) in the assay on SF-539; 0.598 µM (active) in the assay on 786-0.
`COc1cc2c(cc1OC)C1Cc3cc(OC)c(OC)cc3C(C2)O1`: the GI50 in the assay with T47D is 58.5 µM (inactive); with MDA-MB-231, 29.1 µM (inactive); in the assay with SK-MEL-28 it was > 100 µM (inactive); with OVCAR-8 it was > 100 µM (inactive); in the assay on DU-145, > 100 µM (inactive); in the assay on NCI/ADR-RES, > 100 µM (inactive). Further, the GI50 in the assay with HCC 2998 is > 100 µM (inactive); in the assay with SK-MEL-2, > 100 µM (inactive); with K562 it was 46.7 µM (inactive); in the assay with RPMI-8226, 35.2 µM (inactive); with PC-3 it was > 100 µM (inactive); with SF-539, > 100 µM (inactive).
Consider `CC(C)(CCCCC(C)(C)C1NC(=O)N1)C1NC(=O)N1`, for which the GI50 in the assay on HCT-15 was over 10 µM; with T47D, > 10 µM (inactive); in the assay on MDA-MB-231, > 10 µM (inactive); with SK-MEL-28 it was > 10 µM (inactive); in the assay with OVCAR-8, > 10 µM (inactive); with DU-145, > 10 µM (inactive). Moreover, the GI50 with NCI/ADR-RES, in the assay on HCC 2998, with SK-MEL-2, with K562, in the assay on RPMI-8226 and with PC-3 was > 10 µM (inactive) throughout. Also, the GI50 with SF-539 was > 10 µM (inactive).
Turning to `Cc1cc(C)c(NC(=O)/C=C/c2ccccc2)c(C)c1`, the GI50 in the assay with HCT-15 was 78 µM; in the assay with SR it was 7.28 µM (inactive); with SK-MEL-28, > 100 µM (inactive); in the assay with OVCAR-8, > 100 µM (inactive); in the assay on NCI/ADR-RES it was 29.3 µM (inactive); in the assay on HCC 2998, > 100 µM (inactive). For the same compound, the GI50 in the assay with SK-MEL-2 is > 100 µM (inactive); with K562, 32.6 µM (inactive); in the assay with RPMI-8226 it was > 100 µM (inactive); in the assay on PC-3, > 100 µM (inactive); in the assay on SF-539, 59 µM (inactive).
Consider `N#CCCN(c1ccc(/C=N/c2cccc([N+](=O)[O-])c2)cc1)S(=O)(=O)c1ccccc1`, for which the GI50 in the assay with DMS-114, in the assay with SR, with SK-MEL-28, in the assay on OVCAR-8, with XF498 and in the assay on HCC 2998 was > 100 µM (inactive) each time. Moreover, the GI50 in the assay with SK-MEL-2, with DMS-273, with K562, with RPMI-8226, in the assay on SF-539 and with 786-0 was > 100 µM (inactive) in each case.
`C#CC(O)(c1nc2ccccc2s1)c1nc2ccccc2s1`: the GI50 was 20.2 µM with HCT-15; 13.8 µM (inactive) with T47D; 15.7 µM (inactive) in the assay with MDA-MB-231; 40.7 µM (inactive) in the assay with SK-MEL-28; 22 µM (inactive) in the assay with OVCAR-8; 26.4 µM (inactive) in the assay on DU-145. The GI50 in the assay with NCI/ADR-RES is 26.2 µM (inactive); in the assay on SK-MEL-2, 16.7 µM (inactive); in the assay on K562, 45.7 µM (inactive); with RPMI-8226, 21 µM (inactive); with PC-3, 19 µM (inactive); in the assay with SF-539, 17.4 µM (inactive). Further, the GI50 with 786-0 is 18.5 µM (inactive).
On to `c1ccc(Nc2nnc(-c3nsc4ccccc34)o2)cc1`, for which the GI50 in the assay with KM-20L2 was > 100 µM (inactive); with HCT-15 it was over 100 µM; with DMS-114, > 100 µM (inactive); in the assay with SR, > 100 µM (inactive); in the assay with SK-MEL-28, > 100 µM (inactive); with OVCAR-8 it was 48.4 µM (inactive). For the same compound, the GI50 in the assay on HCC 2998 is > 100 µM (inactive); in the assay with SK-MEL-2, > 100 µM (inactive); with DMS-273, 46.6 µM (inactive); in the assay on HOP-18, > 100 µM (inactive); in the assay on K562 it was 59.6 µM (inactive); with RPMI-8226 it was > 100 µM (inactive). Besides, the GI50 with SF-539 is > 100 µM (inactive).

(Values after ChEMBL document CHEMBL1201862, “PubChem BioAssay data set” (2004).)
